Experimental data reported in patent publication US20110190365A1, “Insecticidal 4-phenyl-1H-pyrazoles” (Bayer Crop Science AG, priority 2008, published 2011).

Assay: log P by HPLC on a reversed-phase column (C18), EEC Directive 79/831 Annex V.A8
Type: physicochemical
Details: HCOOH
Protocol: The stated log P values were determined in accordance with EEC Directive 79/831 Annex V.A8 by HPLC (High Performance Liquid Chromatography) using a reversed-phase column (C18).

| SMILES | log P (HCOOH) |
| --- | --- |
| Cc1cc(-n2nc(C(F)(F)F)c(-c3cc(Cl)cc(Cl)c3)c2N)ccc1C(=O)NC(C)(C)C [I-A-Q2-221] | I-A-Q2-221: log P (HCOOH): 4.51 |
| Nc1c(-c2cc(Cl)cc(Cl)c2)c(C(F)(F)F)nn1-c1ccc(C(=O)NCC(F)F)cc1 [I-A-Q2-140] | I-A-Q2-140: log P (HCOOH): 3.93 |
| Cc1cc(-n2nc(C(F)(F)F)c(-c3cc(Cl)cc(Cl)c3)c2N)ccc1C(=O)NCc1ccc([N+](=O)[O-])cc1 [I-A-Q2-249] | I-A-Q2-249: log P (HCOOH): 4.28 |
| COc1ccc(-c2c(C)nn(-c3ccc(C(=O)NCC(F)(F)C(F)F)c(C)c3)c2N)cc1 [I-A-Q2-324] | I-A-Q2-324: log P (HCOOH): 2.30 |
| Cc1cc(-n2nc(C(F)(F)F)c(-c3cc(Cl)cc(Cl)c3)c2N)ccc1C(=O)NC(c1ccc(Oc2ccccc2)cc1)C(F)(F)F (centres unmarked) [I-A-Q2-045] | I-A-Q2-045: log P (HCOOH): 5.85 |
| COc1ccnc(CNC(=O)c2ccc(-n3nc(C(F)(F)F)c(-c4cc(Cl)cc(Cl)c4)c3N)cc2C)c1 [I-A-Q2-052] | I-A-Q2-052: log P (HCOOH): 2.34 |
| CCOC(=O)c1ccc(-n2nc(C(F)(F)F)c(Cl)c2N)cc1 [XI-A-042] | XI-A-042: log P (HCOOH): 3.52 |
| Cc1cc(-n2nc(C(F)(F)F)c(-c3cc(F)cc(Cl)c3)c2N)ccc1C(=O)NCc1ccccn1 [I-A-Q2-344] | I-A-Q2-344: log P (HCOOH): 2.84 |
| Nc1c(-c2cc(Cl)cc(Cl)c2)c(C(F)(F)F)nn1-c1ccc(C(=O)NCc2ccc(Cl)nc2)cc1 [I-A-Q2-148] | I-A-Q2-148: log P (HCOOH): 4.12 |
| Nc1c(-c2cc(Cl)cc(Cl)c2)c(C(F)(F)F)nn1-c1ccc(C(=O)NCC(F)(F)C(F)F)c(C(F)(F)F)c1 [I-A-Q2-385] | I-A-Q2-385: log P (HCOOH): 4.60 |
| Cc1cc(-n2nc(C)c(-c3ccc(F)cc3)c2N)ccc1C(=O)NCc1ccccn1 [I-A-Q2-367] | I-A-Q2-367: log P (HCOOH): 1.59 |
| Nc1c(-c2ccc(Cl)cc2)c(C(F)(F)F)nn1-c1ccc(C(=O)NC2CC2)cc1 [I-A-Q2-163] | I-A-Q2-163: log P (HCOOH): 3.13 |
| Cc1cc(-n2nc(C(F)(F)F)c(-c3cc(Cl)cc(Cl)c3)c2N)ccc1C(=O)NCC(F)(F)C(F)(F)F [I-A-Q2-269] | I-A-Q2-269: log P (HCOOH): 4.57 |
| Cc1cc(-n2nc(C(F)(F)F)c(-c3cc(Cl)cc(Cl)c3)c2N)ccc1C(=O)N(Cc1ccccn1)C1CC1 [I-A-Q2-111] | I-A-Q2-111: log P (HCOOH): 4.17 |
| Cc1cc(-n2nc(C(F)(F)F)c(-c3cc(Cl)cc(Cl)c3)c2N)ccc1C(=O)NC(CC(C)C)C(F)(F)F (centres unmarked) [I-A-Q2-198] | I-A-Q2-198: log P (HCOOH): 5.40 |
| CC(NC(=O)c1ccc(-n2nc(C(F)(F)F)c(-c3cc(F)c(F)c(F)c3)c2N)cc1)c1ccccn1 (centres unmarked) [I-A-Q2-196] | I-A-Q2-196: log P (HCOOH): 2.84 |
| Nc1c(-c2ccc(Cl)cc2)c(C(F)(F)F)nn1-c1ccc(C(=O)NCC(F)(F)F)cc1 [I-A-Q2-162] | I-A-Q2-162: log P (HCOOH): 3.51 |
| Cc1cc(-n2nc(C(F)(F)F)c(-c3cc(Cl)cc(Cl)c3)c2N)ccc1C(=O)NCc1ncc(F)cc1F [I-A-Q2-278] | I-A-Q2-278: log P (HCOOH): 4.30 |
| Nc1c(-c2ccc(Cl)c(Cl)c2)c(C(F)(F)F)nn1-c1ccc(C(=O)NCc2ccccn2)cc1 [I-A-Q2-158] | I-A-Q2-158: log P (HCOOH): 2.85 |
| Nc1c(I)c(C(F)(F)F)nn1-c1ccc(C(=O)O)cc1 [XI-A-045] | XI-A-045: log P (HCOOH): 2.47 |

| SMILES | log P (HCOOH) |
| --- | --- |
| Cc1cc(-n2nc(C(F)(F)F)c(-c3cc(Cl)cc(Cl)c3)c2N)ccc1C(=O)NC(c1cc(Cl)cc(Cl)c1)C(F)(F)F (centres unmarked) [I-A-Q2-043] | I-A-Q2-043: log P (HCOOH): 5.65 |
| Cc1cc(-n2nc(C)c(-c3c(F)cccc3F)c2N)ccc1C(=O)NCc1ccccn1 [I-A-Q2-369] | I-A-Q2-369: log P (HCOOH): 1.52 |
| Cc1cc(-n2nc(C(F)(F)F)c(-c3cc(Cl)cc(Cl)c3)c2N)ccc1C(=O)NCc1cc(C(F)(F)F)c(Cl)cn1 [I-A-Q2-207] | I-A-Q2-207: log P (HCOOH): 4.83 |
| Cc1cc(-n2nc(C(F)(F)C(F)(F)F)c(-c3cc(C(F)(F)F)cc(C(F)(F)F)c3)c2N)ccc1C(=O)NCc1ccccn1 [I-A-Q2-383] | I-A-Q2-383: log P (HCOOH): 3.94 |
| Cc1cc(-n2nc(C(F)(F)F)c(-c3cc(Cl)cc(Cl)c3)c2N)ccc1C(=O)NC(c1ccc(C(F)(F)F)cc1)C(F)(F)F (centres unmarked) [I-A-Q2-242] | I-A-Q2-242: log P (HCOOH): 5.29 |
| Nc1c(-c2ccc(Cl)c(Cl)c2)c(C(F)(F)F)nn1-c1ccc(C(=O)NCC(F)(F)F)cc1 [I-A-Q2-156] | I-A-Q2-156: log P (HCOOH): 3.89 |
| COc1cc(OC)nc(CNC(=O)c2ccc(-n3nc(C(F)(F)F)c(-c4cc(Cl)cc(Cl)c4)c3N)cc2C)n1 [I-A-Q2-255] | I-A-Q2-255: log P (HCOOH): 4.40 |
| Cc1cc(-n2nc(C(F)(F)F)c(-c3cc(Cl)cc(Cl)c3)c2[S+](C)[O-])ccc1C(=O)NCC(F)(F)C(F)F (single isomer, unassigned) [I-A-Q2-284] | I-A-Q2-284: log P (HCOOH): 4.32 |
| Nc1c(-c2cc(Cl)cc(Cl)c2)c(C(F)(F)F)nn1-c1ccc(C(=O)NCc2cccnc2)cc1 [I-A-Q2-143] | I-A-Q2-143: log P (HCOOH): 2.59 |
| Cc1cc(-n2nc(C(F)F)c(-c3ccc(F)cc3F)c2N)ccc1C(=O)NCC(F)(F)C(F)F [I-A-Q2-319] | I-A-Q2-319: log P (HCOOH): 2.80 |
| Cc1cc(-n2nc(C(F)(F)Oc3ccc(Cl)cc3Cl)c(-c3cc(Cl)cc(C(F)(F)F)c3)c2N)ccc1C(=O)NCC(F)(F)C(F)F [I-A-Q2-295] | I-A-Q2-295: log P (HCOOH): 5.27 |
| Cc1cc(-n2nc(C(F)(F)F)c(-c3cc(Cl)cc(Cl)c3)c2N)ccc1C(=O)NC(c1ccccc1)C(F)(F)F (centres unmarked) [I-A-Q2-241] | I-A-Q2-241: log P (HCOOH): 4.89 |
| Cc1cc(-n2nc(C(F)(F)F)c(-c3ccc(Cl)c(Cl)c3)c2N)ccc1C(=O)NCC(F)(F)C(F)F [I-A-Q2-304] | I-A-Q2-304: log P (HCOOH): 4.00 |
| Cc1cc(-n2nc(C(F)(F)F)c(-c3cc(Cl)cc(Cl)c3)c2N)ccc1C(=O)NCc1ncc[nH]1 [I-A-Q2-034] | I-A-Q2-034: log P (HCOOH): 1.94 |
| Cc1cc(-n2nc(C(F)(F)F)c(-c3cc(Cl)cc(Cl)c3)c2N)ccc1C(=O)NC(C)c1ccc(C(F)(F)F)cn1 (centres unmarked) [I-A-Q2-240] | I-A-Q2-240: log P (HCOOH): 4.70 |
| CCC(C)C(NC(=O)c1ccc(-n2nc(C(F)(F)F)c(-c3cc(Cl)cc(Cl)c3)c2N)cc1)C(F)(F)F (centres unmarked) [I-A-Q2-072] | I-A-Q2-072: log P (HCOOH): 5.22 |
| Cc1cc(-n2nc(C(F)(F)Oc3ccccc3Cl)c(-c3cc(Cl)cc(C(F)(F)F)c3)c2N)ccc1C(=O)NCC(F)(F)C(F)F [I-A-Q2-298] | I-A-Q2-298: log P (HCOOH): 4.64 |
| CC(=O)Nc1c(-c2cc(Cl)cc(Cl)c2)c(C(F)(F)F)nn1-c1ccc(C(=O)NCc2ccccn2)c(C)c1 [I-A-Q2-197] | I-A-Q2-197: log P (HCOOH): 2.76 |
| Cc1cc(-n2nc(C(F)(F)F)c(-c3ccc(F)c(Cl)c3)c2N)ccc1C(=O)NCC(F)(F)C(F)F [I-A-Q2-309] | I-A-Q2-309: log P (HCOOH): 3.65 |

Same assay, conditions: HCOOH; Table 4, compounds of formula I-A-Q4

| SMILES | log P (HCOOH) |
| --- | --- |
| Cc1nn(-c2ccc(Cl)cn2)c(N)c1-c1ccc(Cl)cc1Cl [I-A-Q4-021] | I-A-Q4-021: log P (HCOOH): 4.70 |
| Nc1c(-c2ccc(I)cc2)c(C(F)(F)F)nn1-c1ccc(Cl)cn1 [I-A-Q4-051] | I-A-Q4-051: log P (HCOOH): 5.29 |
| Nc1c(-c2cc(F)cc(Cl)c2)c(C(F)(F)F)nn1-c1ccc(Cl)cn1 [I-A-Q4-040] | I-A-Q4-040: log P (HCOOH): 5.29 |
| Nc1c(-c2cc(Cl)cc(Cl)c2)c(C(F)(F)F)nn1-c1ccc(F)c(C(F)(F)F)c1 [I-A-Q4-105] | I-A-Q4-105: log P (HCOOH): 5.25 |
| N#Cc1cc(-n2nc(C(F)(F)F)c(-c3cc(Cl)cc(Cl)c3)c2N)ccc1S(=O)(=O)NC1CCC1 [I-A-Q4-122] | I-A-Q4-122: log P (HCOOH): 4.69 |
| Nc1c(-c2ccccc2Cl)c(C(F)(F)F)nn1-c1ccc(Cl)cn1 [I-A-Q4-023] | I-A-Q4-023: log P (HCOOH): 4.57 |
| COC(=O)c1ccc(-n2nc(C(F)(F)F)c(-c3cc(Cl)cc(Cl)c3)c2N)cc1SC [I-A-Q4-118] | I-A-Q4-118: log P (HCOOH): 4.93 |
| Nc1c(-c2ccc(F)c(F)c2)c(C(F)(F)F)nn1-c1ccc(C(=O)O)cc1 [I-A-Q4-092] | I-A-Q4-092: log P (HCOOH): 3.06 |
| Nc1c(-c2ccc(Cl)cc2)c(C(F)(F)F)nn1-c1ccc(Cl)cn1 [I-A-Q4-041] | I-A-Q4-041: log P (HCOOH): 4.95 |
| Nc1c(-c2ccc(Cl)c(Cl)c2)c(C(F)(F)F)nn1-c1ccc(C(=O)O)cc1 [I-A-Q4-089] | I-A-Q4-089: log P (HCOOH): 3.69 |
| Nc1c(-c2cc(Cl)cc(C(F)(F)F)c2)c(C(F)(F)F)nn1-c1ccc(Cl)cn1 [I-A-Q4-016] | I-A-Q4-016: log P (HCOOH): 5.76 |

Same assay, conditions: HCOOH; compounds of the formula (IX), Table 11

| SMILES | log P (HCOOH) |
| --- | --- |
| Nc1[nH]nc(C(F)(F)F)c1-c1ccc(F)c(F)c1 [IX-201] | IX-201: log P (HCOOH): 2.33 |

Same assay, conditions: HPLC, reversed-phase C18, mobile phase with formic acid

| SMILES | log P (HCOOH) |
| --- | --- |
| N#Cc1cc(-n2nc(C(F)(F)F)c(-c3cc(Cl)cc(Cl)c3)c2N)ccc1-n1cnc2ccccc21 [I-A-Q1-081] | I-A-Q1-081: log P (HCOOH): 4.28 |
| N#Cc1cc(-n2nc(C(F)(F)F)c(-c3cc(Cl)cc(Cl)c3)c2N)ccc1-n1cncn1 [I-A-Q1-024] | I-A-Q1-024: log P (HCOOH): 3.90 |
| N#Cc1cc(-n2nc(-c3ccccc3)c(-c3ccc(Cl)cc3)c2N)ccc1-n1cncn1 [I-A-Q1-063] | I-A-Q1-063: log P (HCOOH): 3.53 |
| N#Cc1cc(-n2nc(C(F)(F)F)c(-c3cc(Cl)cc(Cl)c3)c2N)ccc1-n1cnc(C(N)=O)n1 [I-A-Q1-088] | I-A-Q1-088: log P (HCOOH): 3.06 |
| Nc1c(-c2cc(Cl)cc(Cl)c2)c(C(F)(F)F)nn1-c1ccc(-n2cncn2)c(C(F)(F)F)c1 [I-A-Q1-068] | I-A-Q1-068: log P (HCOOH): 4.32 |
| Cc1nn(-c2ccc(-n3cncn3)c(C#N)c2)c(N)c1-c1ccc(Cl)cc1 [I-A-Q1-029] | I-A-Q1-029: log P (HCOOH): 2.65 |
| Nc1c(-c2cc(Cl)cc(Cl)c2)c(C(F)(F)F)nn1-c1ccc(-n2cncn2)c(-n2cncn2)c1 [I-A-Q1-075] | I-A-Q1-075: log P (HCOOH): 3.28 |
| N#Cc1cc(-n2nc(C(F)F)c(-c3ccc(F)cc3F)c2N)ccc1-n1cncn1 [I-A-Q1-048] | I-A-Q1-048: log P (HCOOH): 2.39 |
